Results on 25 compounds are retold here after PubChem BioAssay AID624410 (The Scripps Research Institute Molecular Screening Center, 2012).

The source made the active and inactive calls. No rule for the calls is given here.

The target of the assay is Orexin/Hypocretin receptor type 1 (Homo sapiens) (UniProt O43613). Kind of assay: OX1R antagonist potency, HTRF readout, late-stage follow-up, OX1R antagonist probe project, cell-based (AID 624410). As to conditions: OX1R-expressing cells, HTRF antagonist assay. A general note: Time-resolved FRET reads energy transfer from a long-lived donor to a nearby acceptor.
Orexin/Hypocretin receptor type 1 (Homo sapiens), sequence (O43613 whole entry, looked up): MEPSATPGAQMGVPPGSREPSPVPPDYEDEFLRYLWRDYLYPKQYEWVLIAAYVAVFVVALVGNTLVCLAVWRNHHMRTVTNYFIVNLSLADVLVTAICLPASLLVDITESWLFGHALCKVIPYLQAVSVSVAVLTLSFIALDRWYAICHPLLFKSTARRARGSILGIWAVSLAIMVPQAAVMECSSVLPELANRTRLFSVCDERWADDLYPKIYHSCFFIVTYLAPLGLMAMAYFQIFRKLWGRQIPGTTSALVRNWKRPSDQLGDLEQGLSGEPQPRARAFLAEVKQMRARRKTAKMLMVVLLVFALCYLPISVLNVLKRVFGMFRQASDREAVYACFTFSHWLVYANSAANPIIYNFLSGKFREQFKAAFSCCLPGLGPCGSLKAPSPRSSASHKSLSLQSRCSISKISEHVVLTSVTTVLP
For `CSc1cccc(NC(=O)C2CCCN2S(=O)(=O)c2ccc(Br)s2)c1` (stereo not given), the IC50 was 386 nM.

With `Cc1ccccc1NC(=O)C1CCCN1S(=O)(=O)c1ccccc1C(F)(F)F` (stereo not given), the IC50 was 3740 nM.

As for `CCn1c(SCC(=O)Nc2ccc3c(c2)c2ccccc2n3CC)nnc1-c1cnccn1`, the IC50 is 844 nM.

Consider `CCSC1=C(C#N)C(c2ccccc2Cl)C(C(=O)c2cccs2)C(O)(C(F)(F)F)N1` (stereo not given), for which the IC50 was 611 nM.

Take `Cc1ccc(-c2csc3nnc(SCC(=O)Nc4nsc(-c5ccccc5)n4)n23)cc1`: the IC50 was 3060 nM.

Take `CC(=C/c1ccccc1)/C=C1/SC(N2CCOCC2)=NC1=O`: the half-maximal inhibitory concentration (IC50) was 3020 nM.

Turning to `COCCCNC(=O)CCC(=O)NNc1nc2ccccc2c2nc(-c3ccccc3)nn12`, the IC50 was 6540 nM.

Regarding `O=C(CN1C(=O)/C(=C\c2cccc(Br)c2)Oc2ccccc21)NCC1CCCO1` (stereo not given), the IC50 was 277 nM.

As to `COc1cc(OC)c(-c2nc3ccccc3s2)cc1OC`, the half-inhibitory concentration (IC50) is 1900 nM.

For `Fc1cccc(Nc2nc3ccccc3n3cnnc23)c1`, the IC50 was 3340 nM.

As to `Cc1noc(C)c1COc1ccc(C(=O)OCC(=O)N2CC(=O)Nc3ccccc32)cc1`, the IC50 entry is “inactive”.

For the compound `Cc1cccc(NC(=O)[C@@H]2CCCN2S(=O)(=O)c2ccc(Cl)cc2)c1`, the IC50 is 2030 nM.

Consider `CSc1cccc(N2CC(C(=O)NCCN3C(=O)S/C(=C\c4cccnc4)C3=O)CC2=O)c1` (stereo not given), for which the IC50 is 1900 nM.

In the case of `CCc1cc2c(SCC(=O)N(CC)c3c(N)n(Cc4ccccc4)c(=O)[nH]c3=O)ncnc2s1`, the IC50 was 1610 nM.

For the compound `COc1cccc(/C=C2/Oc3ccccc3N(CC(=O)NCC3CCCO3)C2=O)c1` (stereo not given), the IC50 is 468 nM.

As for `CCN(CC)c1ccc(NC(=O)Cn2c(C(C)NC(=O)c3ccccc3)nc3ccccc32)cc1` (stereo not given), the IC50 is 655 nM.

With `Cc1cccc(C=NNC(=O)c2cc3c(s2)-c2ccccc2CC3)c1`, the IC50 was 2820 nM.

As to `CCc1cc(C(=O)OCC(=O)N2CCC(c3ccccc3)=N2)sc1C`, the IC50 is 2190 nM.

`O=C(CSc1ccc(-c2ccccc2)nn1)c1cccs1`: the IC50 is 1960 nM.

On to `Cc1cc(Cl)ccc1OCCCC(=O)NCCN1C(=O)S/C(=C\c2cccnc2)C1=O`, for which the IC50 was 437 nM.

As to `O=c1cc(CN2CC(O)Cc3ccc4ccccc4c32)nc2sccn12` (stereo not given), the IC50 entry was “inactive”.

As to `CCOc1ccccc1C(=O)Nc1ccc2nc3n(c(=O)c2c1)CCCCC3`, the IC50 is 769 nM.

`Cc1c(NS(=O)(=O)c2cccc(C(=O)OCC(=O)N(C)C3CCCCC3)c2)c(=O)n(-c2ccccc2)n1C`: the IC50 is 750 nM.

Take `CCOC(=O)N1CCN(C(=O)CSc2ccc(-c3ccccc3)nn2)CC1`: the IC50 result was “inactive”.

Turning to `COc1ccc(OC)c(S(=O)(=O)NCC(c2ccco2)N2CCc3ccccc32)c1` (stereo not given), the IC50 was 2710 nM.

A word on the IC50: it is the concentration at which inhibition is half-maximal.
